Assay results taken from US12577536B2, “Method for isolating ureteric bud tip cells” (KYOTO UNIVERSITY, priority 2019, dated 2026).

Tests used:
Assay type in all cases: cell-based, human
tip cell colonies = assay: Reconstitution of iUB organoids from tip cell colonies; conditions: organoid medium with CHIR99021
Protocol: Hydrogel was dissolved with Cell Recovery Solution (BD Biosciences) for 1 h at 4° C. to detach day 7 tip cell colonies. After washing with additional Cell Recovery Solution, the tip cell colonies were centrifuged at 500 g for 5 min at room temperature. Essential 6 medium containing 0.1 μM LDN193189, 100 ng/ml GDNF, 0.1 μM TTNPB, 200 ng/ml FGF8, 1 μM CHIR99021 or 10% Afamin/Wnt3a conditioned medium (MBL), 200 ng/ml R-spondin 1 (R&D systems), 50 ng/ml EGF, 200 ng/ml FGF1 and 10% Matrigel was applied to the tube including tip cell colonies. After pipetting gently with a wide-mouth micropipette (BMBio) not to break colonies, the suspension was distributed to low-attachment 35 mm dish (Sumitomo Bakelite) at 2 mL/dish. The medium was refreshed every 2 days. On day 4, each colony was placed onto one well of low-attachment 96-well plates in the same medium. After an additional 6 days, the tip region was separated from the reconstituted iUB organoid and treated with the same medium for 35 days.

[1] = system: dissociated tip colony cells; assay: Collecting duct progenitor induction, 2D culture with immunostaining
Protocol: For 2D cultures, day 7 tip cell colonies detached from hydrogel were dissociated into single cells by pipetting after treatment with Accutase for 3 min at 37° C. The single cells were resuspended with Essential 6 medium containing 1 μM IWR-1 (Tocris) and 0.5 μL/cm^2 iMatrix-511 silk with or without 1 μM A83-01 and seeded at a density of 4×10^4 cells/well in 96-well plates. For 3D cultures, day 14 reconstituted iUB organoids were treated with Essential 6 medium containing 1 μM IWR-1 and 1 μM A83-01 for 14 days.
Immunostaining analysis was performed as described previously with some modifications (Mae, SI. & Ryosaka, M. et al. Biochem Biophys Res Commun. 495, 954-61 (2018)). For 2D cultures, the cells were fixed with 4% paraformaldehyde (PFA)/PBS for 20 min at 4° C. After washing with PBS twice, the cells were blocked with 18 normal donkey serum (MERCK) and 3% bovine serum albumin (BSA; Nacalai Tesque)/PBST (PBS/0.25% Triton X-100, Nacalai Tesque) for 1 h at room temperature. Primary antibodies were diluted with blocking solution at 1:500 and incubated with the samples overnight at 4° C. After washing with PBST twice, secondary antibodies diluted with blocking solution at 1:500 were incubated for 1 h at room temperature.

[2] = system: ND aggregates / iUB organoids; assay: iUB organoid induction from ND aggregates; conditions: 50 ng/ml EGF and 200 ng/ml FGF1 added together to organoid medium
Protocol: Unwanted cells were removed from the ND aggregates by pipetting (Mae, SI. & Ryosaka, M. et al. Biochem Biophys Res Commun. 495, 954-61 (2018)). The ND aggregates were treated with the same medium and factors containing 2% Matrigel for 6 days to constitute iUB organoids with epithelial polarity and tubular lumens. 50 ng/ml EGF (R&D Systems) and 200 ng/ml FGF1 (R&D Systems) were added to enhance budding. The tips were mechanically separated from iUB organoids and cultured in the same medium and factors containing 2% Matrigel for 6 to 14 days to reconstitute branching iUB organoids. The tips separated from the reconstituted iUB organoids were treated with the same medium and factors to repeatedly reconstitute iUB organoids.

Cc1c[nH]c(-c2cnc(NCCNc3ccc(C#N)cn3)nc2-c2ccc(Cl)cc2Cl)n1 [CHIR99021, 6-[2-[4-(2,4-Dichlorophenyl)-5-(4-methyl-1H-imidazole-2-yl)pyrimidine-2-ylamino]ethylamino]pyridine-3-carbonitrile]
reconstitution of iUB organoids from tip cell colonies (tip cell colonies): only observed with tip cell colonies derived from 585A1 iPS cells

Cc1cccc(-c2nn(C(=S)Nc3ccccc3)cc2-c2ccnc3ccccc23)n1 [A83-01, 3-(6-Methyl-2-pyridinyl)-N-phenyl-4-(4-quinolinyl)-1H-pyrazole-1-carbothioamide]
induction rates of AQP2-expressing cells ([1]; 1 μM A83-01 in combination with 1 μM IWR-1, day 7 of 2D culture): improved the induction rates of these cells

EGF: protein called Epidermal Growth Factor (R&D systems) (NSDSECPLSHDGYCLHDGVCMYIEALDKYACNCVVGYIGERCQYRDLKWWELR; Epidermal growth factor; UniProt P01133 971-1023, looked up)
budding of iUB organoids [2]: promoted budding

FGF1: fibroblast growth factor
budding of iUB organoids [2]: promoted budding

O=C(Nc1cccc2cccnc12)c1ccc(N2C(=O)[C@@H]3[C@H](C2=O)[C@@H]2C=C[C@H]3C2)cc1 [IWR-1]
differentiation into AQP2-expressing, CAII-negative cells ([1]; 1 μM IWR-1, day 7 of 2D culture): facilitated the differentiation of dissociated tip colony cells into the cells expressing a collecting duct principal cell marker, Aquaporin (AQP) 2
